Results: US6586422B2, “Pyrazine and triazine derivatives of 1,2,4,5-tetrahydro-Benzo or Thieno [d] azepine” (Hoffman-La Roche Inc., priority 2000, dated 2003)

Each compound was assayed against T1, rat mGluR1a receptor (Rattus norvegicus, UniProt P23385) (assay: Binding assay for the characterization of mGluR 1 antagonistic properties (tritiated radioligand displacement, membranes of transfected HEK 293 cells)). Settings: membranes of HEK 293 cells transiently transfected with rat mGluR1a; radioligand 3 nM; 1 hour at room temperature; read-out: B-IC50.
T1 construct: expressed in transfected cells; host or cells: HEK 293 cells (transient transfection; membranes used)
T1 sequence (P23385 19-1199): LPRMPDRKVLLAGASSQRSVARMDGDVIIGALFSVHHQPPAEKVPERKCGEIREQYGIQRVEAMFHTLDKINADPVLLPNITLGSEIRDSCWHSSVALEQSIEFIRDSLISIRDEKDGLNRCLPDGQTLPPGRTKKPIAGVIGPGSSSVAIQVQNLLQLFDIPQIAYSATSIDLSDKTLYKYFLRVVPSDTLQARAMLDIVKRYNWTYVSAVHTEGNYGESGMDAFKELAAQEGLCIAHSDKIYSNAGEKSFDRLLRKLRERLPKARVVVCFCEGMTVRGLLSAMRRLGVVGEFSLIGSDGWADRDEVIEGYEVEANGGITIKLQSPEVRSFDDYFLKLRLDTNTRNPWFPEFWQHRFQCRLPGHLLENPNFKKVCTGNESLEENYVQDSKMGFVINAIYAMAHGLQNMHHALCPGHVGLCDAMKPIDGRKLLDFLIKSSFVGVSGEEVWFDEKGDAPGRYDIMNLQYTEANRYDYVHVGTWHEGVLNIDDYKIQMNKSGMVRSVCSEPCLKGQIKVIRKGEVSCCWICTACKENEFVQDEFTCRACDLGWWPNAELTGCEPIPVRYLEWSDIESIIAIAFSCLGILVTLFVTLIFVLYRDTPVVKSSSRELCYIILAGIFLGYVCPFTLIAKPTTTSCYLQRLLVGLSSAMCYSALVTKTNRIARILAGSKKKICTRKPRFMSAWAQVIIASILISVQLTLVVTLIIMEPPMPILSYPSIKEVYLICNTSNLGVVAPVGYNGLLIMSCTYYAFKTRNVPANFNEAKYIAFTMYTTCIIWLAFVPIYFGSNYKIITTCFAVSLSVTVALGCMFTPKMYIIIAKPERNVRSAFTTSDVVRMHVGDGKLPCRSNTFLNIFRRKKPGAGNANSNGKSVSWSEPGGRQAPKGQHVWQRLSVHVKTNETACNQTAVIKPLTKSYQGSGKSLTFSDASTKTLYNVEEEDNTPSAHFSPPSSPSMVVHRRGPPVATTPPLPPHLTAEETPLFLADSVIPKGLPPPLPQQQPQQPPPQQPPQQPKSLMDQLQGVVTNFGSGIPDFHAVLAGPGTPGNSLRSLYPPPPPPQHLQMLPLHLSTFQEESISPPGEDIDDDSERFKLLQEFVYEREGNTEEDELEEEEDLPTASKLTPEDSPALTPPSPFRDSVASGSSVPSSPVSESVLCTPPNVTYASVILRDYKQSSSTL
Description: Binding Assay for the Characterization of mGluR 1 Antagonistic Properties
Binding assay with tritiated 1-ethyl-2-methyl-6-oxo-4-(1,1,2-tritritio-1,2,4,5-tetrahydro-benzo[d]azepin-3-yl)-1,6-dihydro-pyrimidine-5-carbonitrile (Eur. Pat. Appl. EP 1 074 549 A2): HEK 293 cells were transiently transfected with the rat mGluR1a receptor. The cells were collected and washed 3 times with PBS. The cell pellets were frozen at −80° C. Membranes were prepared from HEK 293 cells transfected with the rat mGluR1a receptor and used in the binding experiments at 10 μg proteins per assay after resuspension in a HEPES NaOH 20 mM, pH=7.4 binding buffer. 1-Ethyl-2-methyl-6-oxo-4-(1,1,2-tritritio-1,2,4,5-tetrahydro-benzo[d]azepin-3-yl)-1,6-dihydro-pyrimidine-5-carbonitrile (S.A 33.4 Ci/mmol) was used at 3 nM final concentration. The incubation with variable concentrations of potential inhibitors was performed for 1 hour at room temperature, the incubate was then filtered onto GF/B glass fiber filter preincubated 1 hour in PEI 0,1% and washed 3 times with 1 ml of cold binding buffer. The radioactivity retained on the unifilter 96 was counted using a Topcount β counter. After correction for non specific binding the data were normalized and the IC50 value calculated using a 4 parameters logistic equation which was fitted to the inhibition curve.
`N#Cc1nnc(NCC2CC2)nc1N1CCc2ccccc2CC1` [Example 4, 3-(Cyclopropylmethyl-amino)-5-(1,2,4,5-tetrahydro-benzo[d]azepin-3-yl)-[1,2,4]triazine-6-carbonitrile] gave an IC50 of 5 nM.
With `N#Cc1nnc(NCCO)nc1N1CCc2ccccc2CC1` [Example 5, 3-(2-Hydroxy-ethylamino)-5-(1,2,4,5-tetrahydro-benzo[d]azepin-3-yl)-[1,2,4]triazine-6-carbonitrile] the IC50 was 31 nM.
With `CC(C)(C)OC(=O)NCCNc1nnc(C#N)c(N2CCc3ccccc3CC2)n1` [Example 8, {2-[6-Cyano-5-(1,2,4,5-tetrahydro-benzo[d]azepin-3-yl)-[1,2,4]triazin-3-ylamino]-ethyl}-Carbamic Acid Tert-Butyl Ester] the IC50 was 27 nM.
In the case of `CN(C)c1nnc(C#N)c(N2CCc3ccccc3CC2)n1` [Example 3, 3-Dimethylamino-5-(1,2,4,5-tetrahydro-benzo[d]azepin-3-yl)-[1,2,4]triazine-6-carbonitrile], the IC50 is reported as 1380 nM.
`N#Cc1nnc(NN)nc1N1CCc2ccccc2CC1` [Example 7, 3-Hydrazino-5-(1,2,4,5-tetrahydro-benzo[d]azepin-3-yl)-[1,2,4]triazine-6-carbonitrile] gave an IC50 of 370 nM.
With `N#Cc1nccnc1N1CCc2ccccc2CC1` [Example 13, 3-(1,2,4,5-Tetrahydro-benzo[d]azepin-3-yl)-pyrazine-2-carbonitrile] the IC50 was 470 nM.
With `N#Cc1nnc(N)nc1N1CCc2ccccc2CC1` [Example 2, 3-Amino-5-(1,2,4,5-tetrahydro-benzo[d]azepin-3-yl)-[1,2,4]triazine-6-carbonitrile] the IC50 was 27 nM.
Compound `N#Cc1nnc(NCCc2cccnc2)nc1N1CCc2ccccc2CC1` [Example 9, 3-(2-Pyridin-3-yl-ethylamino)-5-(1,2,4,5-tetrahydro-benzo[d]azepin-3-yl)-[1,2,4]triazine-6-carbonitrile] has an IC50 of 29 nM.
`CC(O)CNc1nnc(C#N)c(N2CCc3ccccc3CC2)n1` (racemic) [Example 6, (RS)-3-(2-Hydroxy-propylamino)-5-(1,2,4,5-tetrahydro-benzo[d]azepin-3-yl)-[1,2,4]triazine-6-carbonitrile] gave an IC50 of 27 nM.
Compound `Cc1nc(N2CCc3ccccc3CC2)c(C#N)nc1-c1ccccc1` [Example 14, 5-Methyl-6-phenyl-3-(1,2,4,5-tetrahydro-benzo[d]azepin-3-yl)-pyrazine-2-carbonitrile] has an IC50 of 45 nM.
`N#Cc1ncc(NCCO)nc1N1CCc2ccccc2CC1` [Example 15, 5-(2-Hydroxy-ethylamino)-3-(1,2,4,5-tetrahydro-benzo[d]azepin-3-yl)-pyrazine-2-carbonitrile] showed an IC50 of 500 nM.
Compound `COCCOc1nnc(C#N)c(N2CCc3ccccc3CC2)n1` [Example 1, 3-(2-Methoxy-ethoxy)-5-(1,2,4,5-tetrahydro-benzo[d]azepin-3-yl)-[1,2,4]triazine-6-carbonitrile] has an IC50 of 3000 nM.
